# According to US20240190824A1, “INHIBITORS OF TREK (TWIK RELATED K+ CHANNELS) CHANNEL FUNCTION” (ONO PHARMACEUTICAL CO., LTD., priority 2019, published 2024):
# Molecular target: human TREK-1 (Homo sapiens (Human), UniProt O95069)
# Test: TREK-1 Thallium (Tl+) flux assay
# Format: cell-based
# Settings: CHO-K1 cells stably expressing human TREK-1
# human TREK-1, sequence (O95069 whole entry): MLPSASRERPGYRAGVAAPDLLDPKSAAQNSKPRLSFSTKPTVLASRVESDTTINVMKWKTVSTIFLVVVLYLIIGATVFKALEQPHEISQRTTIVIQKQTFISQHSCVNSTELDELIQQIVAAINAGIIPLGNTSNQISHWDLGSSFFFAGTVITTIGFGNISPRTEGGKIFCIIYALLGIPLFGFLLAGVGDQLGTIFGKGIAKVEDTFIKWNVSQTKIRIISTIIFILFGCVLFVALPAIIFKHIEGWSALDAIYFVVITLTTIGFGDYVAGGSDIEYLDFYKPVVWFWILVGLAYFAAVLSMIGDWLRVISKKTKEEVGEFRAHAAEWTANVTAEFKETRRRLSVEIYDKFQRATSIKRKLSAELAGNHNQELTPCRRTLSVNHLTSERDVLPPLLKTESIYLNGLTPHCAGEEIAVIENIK
row,IC50,SMILES
1,360 nM,"Cc1cc(C)n(C(=O)c2ccc(Cl)c(C(=O)Nc3ncc(C#Cc4ccccc4)cc3C)c2)n1 [Compound 72, 2-chloro-5-(3,5-dimethylpyrazole-1-carbonyl)-N-[3-methyl-5-(2-phenylethynyl)-2-pyridyl]benzamide]"
2,470 nM,"Cc1cc(C#Cc2ccccc2)cnc1NC(=O)c1cc(-c2cnn(C)c2)ccc1Cl [Compound 78, 2-chloro-N-[3-methyl-5-(2-phenylethynyl)-2-pyridyl]-5-(1-methylpyrazol-4-yl)benzamide]"
3,200 nM,"O=C(Nc1ncc(C#Cc2ccccc2)cc1F)c1cc(NC(=O)C2COCCO2)ccc1Cl (stereo not shown) [Compound 10, N-[4-chloro-3-[[3-fluoro-5-(2-phenylethynyl)-2-pyridyl]carbamoyl]phenyl]-1,4-dioxane-2-carboxamide]"
4,530 nM,"Cc1cc(C#Cc2cccnc2)cnc1NC(=O)c1cc(NC(=O)OC(C)(C)C)ccc1Cl [Compound 41, tert-butyl N-[4-chloro-3-[[3-methyl-5-[2-(3-pyridyl)ethynyl]-2-pyridyl]carbamoyl]phenyl]carbamate]"
5,150 nM,"O=C(Nc1ncc(C#Cc2ccc(F)cc2)cc1F)c1cc(NC(=O)C2CC2)ccc1Cl [Compound 7, 2-chloro-5-(cyclopropanecarbonylamino)-N-[3-fluoro-5-[2-(4-fluorophenyl)ethynyl]-2-pyridyl]benzamide]"
6,130 nM,"Cn1cc(-c2ccc(Cl)c(C(=O)Nc3ncc(C#Cc4ccccc4)cc3F)c2)cn1 [Compound 59, 2-chloro-N-[3-fluoro-5-(2-phenylethynyl)-2-pyridyl]-5-(1-methylpyrazol-4-yl)benzamide]"
7,370 nM,"Cc1cc(C#Cc2ccccn2)cnc1NC(=O)c1cc(NC(=O)OC(C)(C)C)ccc1Cl [Compound 15, tert-butyl N-[4-chloro-3-[[3-methyl-5-[2-(2-pyridyl)ethynyl]-2-pyridyl]carbamoyl]phenyl]carbamate]"
